The subject of data set [1] is CAN1-luc expression construct premature stop codon. In words: CAN1-luc expression construct readthrough (rabbit reticulocyte lysate). Type of data set: biochemical. The note with it: oligo at +8 position downstream of premature stop codon. The text has this: FIG. 4 illustrates one embodiment of a CAN1 arginine permease gene/luciferase expression construct (Can1-1uc). Upper panel: A schematic of the construct showing the relative position of a premature stop codon and a Can1 open reading frame and a luciferase gene with a natural terminal stop codon. Lower panel: A deoxyribonucleic acid sequence of the Can1-1uc construct with a TGA premature stop codon and a deoxyribonucleic acid oligo hybridized to the Can1-1uc construct at the +8 nucleotide position downstream of the premature stop codon.
FIG. 5 presents exemplary data showing readthrough of a CAN1-1uc expression construct premature stop codon with a DNA oligo hybridized at the +8 nucleotide position downstream of the premature stop codon.
The DNA antisense oligos contemplated herein were validated using a DNA expression construct comprising a premature stop codon and a luciferase gene. The basic methodology was used a CAN1 gene expression construct encoding an arginine permease amino acid transporter protein. The CAN1 expression construct positions a […] premature stop codon at the terminus of the CAN1 open reading frame subsequently followed by a luciferase open reading frame. See, FIG. 4. The DNA antisense oligo +8(70) having the nucleic acid sequence of 5′-[…]-3′ was then positioned at the +8 nucleic acid position downstream of the first nucleotide of the premature stop codon. […]

The test system of data set [2] is CFTR premature stop codon (G542X; UGAC, UGAG) mRNA. In words: 511-565 CFTR nanoluciferase construct readthrough (RRL assay). Type of data set: biochemical. The settings on record: for readthrough promotion by fluoride-modified oligos: RRL assay. An excerpt:
(§1) FIG. 6 presents one embodiment of a cystic fibrosis gene/nanoluciferase expression construct (511-565 CFTR). Upper panel: A schematic of the construct showing the relative position of a premature stop codon (UGAG or UGAC) within a cystic fibrosis open reading frame (CFTR) and a luciferase gene with a natural terminal stop codon. Lower panel: A deoxyribonucleic acid sequence of the CFTR construct with a TGA premature stop codon and a deoxyribonucleic acid oligo hybridized to the CFTR construct at the +8 nucleotide position downstream of the premature stop codon.
In one embodiment, the present invention contemplates a modified cystic fibrosis transmembrane conductance regulator (CFTR) deoxyribonucleic acid (DNA) construct. In one embodiment, the modified CFTR DNA construct comprises a CFTR open reading frame comprising a premature TGA stop codon. In one embodiment, the TGA premature stop codon is a G542X mutation. In one embodiment, the modified CFTR DNA construct further comprises a nanoluciferase gene and a natural stop codon. In one embodiment, the modified CFTR mRNA construct molecule is hybridized to a single stranded DNA antisense oligo at the +8 nucleotide position downstream of a TGA premature stop codon. In one embodiment, the DNA antisense oligo is 5′-[…]-3′. See, FIG. 6.
(§2) A 511-565 CFTR DNA expression vector construct was designed with several different codon configurations: i) a single wild type sense codon (“GGAG”) and a subsequent wild-type stop codon; ii) a premature stop codon “TGAG” comprising a G542X mutation (e.g., a strong stop codon); and iii) a premature stop codon “TGAC” comprising a G542X mutation (a weak stop codon) rendering an artificial readthrough-prone context. […] See, FIG. 7.

The test system of data set [3] is CFTR wild type construct without premature stop codon (GGAG). In words: 511-565 CFTR nanoluciferase construct expression, wild type. Type of data set: biochemical. The settings on record: increasing G418 concentrations.
Description: as §1
FIG. 8 presents exemplary data showing the effect of the aminoglycoside G418 on 511-565 CFTR construct expression.
as §2

The test system of data set [4] is CFTR mRNA levels (NMD-mediator SMG1). In words: mRNA analysis by qPCR in CFF-16HBEge cell lines. It is filed as cell-based. An excerpt: The example presents the results of mRNA analysis by quantitative polymerase chain reaction and (qPCR) and protein analysis by Western Blot.
(Real-time PCR tracks product formation cycle by cycle.)

For data set [5] the following is noted: cited from earlier work.
For data set [6] the following is noted: experimental data; cited from earlier work.

We go through seven compounds from patent publication US20240209376A1, “Specific Oligonucleotide-Programmed Readthrough of Nonsense Codons” (UNIVERSITY OF MASSACHUSETTS, priority 2021, published 2024).

Entries after “also recorded” stand apart in the source; their conditions may differ.

“5′-GCGCCGGGCCTTTCTTTATGTTTTTGGCGT-3′ (DNA, backbone and methylation of C not given here) [+8(70), DNA antisense oligo at +8 position of CAN1-luc construct]”: the “readthrough of premature stop codon in CAN1-luc construct” value in data set [1] is listed as “increases readthrough of a premature stop codon”.

As to `CN[C@@H]1[C@@H](O)[C@@H](O[C@H]2[C@H](O)[C@@H](O[C@H]3O[C@H]([C@H](C)O)[C@@H](O)[C@H](O)[C@H]3N)[C@H](N)C[C@@H]2N)OC[C@]1(C)O` [G418], in data set [2] (UGAG and UGAC constructs, increasing G418 concentrations), the “premature stop codon readthrough, G418 alone” value was “promotes premature stop codon (UGAG and UGAC) readthrough in a concentration-dependent manner; also recorded: increasing expression of premature stop codon constructs”. Besides, in data set [2] (weak (UGAC) and strong (UGAG) premature codon, +8(66) combination experiment (FIG. 9)), the “readthrough rate at 0.5 μM and 0.1 μM G418 versus 1 μM G418” value is reported as “significantly higher readthrough rate”. Also, the “wild type sense codon (GGAG) construct expression, G418 alone” value in data set [3] is recorded as “inhibits wild type sense codon (GGAG) readthrough in a concentration-dependent manner; also recorded: decreases the expression of wild type construct”.

On to `CCN(CC)S(=O)(=O)c1cc(Nc2nccc(-c3ccnc(-c4ccc(NC(=O)NC)cc4)c3)n2)ccc1Cl` [SMG1i], for which, in data set [4], the “CFTR WT mRNA” value was “smaller increase” and the “mRNA levels of the PTC alleles” value is recorded as “restores mRNA levels of the PTC alleles”.

`NC[C@H]1O[C@H](O[C@H]2[C@H](O)[C@@H](O[C@H]3O[C@H](CO)[C@@H](O)[C@H](N)[C@H]3O)[C@H](N)C[C@@H]2N)[C@H](N)C[C@@H]1O` [tobramycin]: the “rise in NAG, once daily arm less than three times daily regimen” value in data set [5] (adults and children) is reported as 33%. Besides, in data set [5] (once daily group mostly dosed in the evening), the “elimination rate, once daily versus three times daily group” value was “lower elimination rate”. For the same compound, in data set [5] (paediatric group, single daily dose, compared with a rise with three divided doses), the “serum creatinine level during the course of treatment” value is reported as “decreased”. Moreover, in data set [5] (patients with CF), the “efficacy, single daily versus multiple daily dosing regimen” value was “equal efficacy”.

In the case of “TCCACTCAGTGTGATTCCAC^F (2'-fluoro at 20, other sugars and backbone not given here; one 2'-fluoro at 3'-terminal nucleotide) [+8(47) oligo withone 2′-fluoride modification]”, the “readthrough promotion by fluoride-modified oligos” value in data set [2] is listed as “promote readthrough in an RRL assay with improved stability and/or efficiency”.

With U^FCCAC^FTCAG^FTGTG^FATTC^FCAC^F, in data set [2], the “readthrough promotion by fluoride-modified oligos” value was “promote readthrough in an RRL assay with improved stability and/or efficiency”.

For gentamicin, the “relative toxicity among aminoglycosides” value in data set [6] was “more toxic than tobramycin and amikacin”.
